Laboratory results: ChEMBL document CHEMBL5543097, “Synthesis and structure-activity relationships of novel 14-membered 2-fluoro ketolides with structural modification at the C11 position” (Eur J Med Chem, 2024)
In brackets after ≈: the same amount, converted by molar mass.

Columns and labels:
[1] = system: Haemophilus influenzae; experiment: Antibacterial activity against Haemophilus influenzae HIN 20-18 assessed as inhibition of bacterial growth incubated for 20 to 24 hrs by CLSI based broth microdilution method; format: functional; settings: time 20-24 hrs
[2] = system: Streptococcus pneumoniae; experiment: Antibacterial activity against erythromycin-resistant Streptococcus pneumoniae SPN19-13 assessed as inhibition of visible bacterial growth incubated for 18 hrs by broth microdilution method; format: functional
[3] = system: Haemophilus influenzae; experiment: Antibacterial activity against Haemophilus influenzae HIN 19-18 assessed as inhibition of bacterial growth incubated for 20 to 24 hrs by CLSI based broth microdilution method; format: functional; settings: HIN 19-18, time 20-24 hrs
[4] = system: Haemophilus influenzae; experiment: Antibacterial activity against Haemophilus influenzae HIN 19-15 assessed as inhibition of bacterial growth incubated for 20 to 24 hrs by CLSI based broth microdilution method; format: functional; settings: time 20-24 hrs
[5] = system: Streptococcus agalactiae; experiment: Antibacterial activity against erythromycin-resistant Streptococcus agalactiae 19-9 assessed as inhibition of visible bacterial growth incubated for 18 hrs by broth microdilution method; format: functional
[6] = system: Moraxella catarrhalis; experiment: Antibacterial activity against Moraxella catarrhalis BCA 19-6 assessed as inhibition of bacterial growth incubated for 24 hrs by CLSI based broth microdilution method; format: functional; settings: Moraxella catarrhalis, BCA 19-6, 24 h, read-out: MIC
[7] = system: Staphylococcus epidermidis; experiment: Antibacterial activity against erythromycin-resistant Staphylococcus epidermidis 19-6 assessed as inhibition of visible bacterial growth incubated for 18 hrs by broth microdilution method; format: functional
[8] = system: Staphylococcus epidermidis; experiment: Antibacterial activity against erythromycin-resistant Staphylococcus epidermidis 19-8 assessed as inhibition of visible bacterial growth incubated for 18 hrs by broth microdilution method; format: functional
[9] = system: Staphylococcus epidermidis; experiment: Antibacterial activity against erythromycin-resistant Staphylococcus epidermidis 19-9 assessed as inhibition of visible bacterial growth incubated for 18 hrs by broth microdilution method; format: functional
[10] = system: Staphylococcus epidermidis; experiment: Antibacterial activity against erythromycin-resistant Staphylococcus epidermidis 19-5 assessed as inhibition of visible bacterial growth incubated for 18 hrs by broth microdilution method; format: functional
[11] = system: Streptococcus pneumoniae; experiment: Antibacterial activity against erythromycin-resistant Streptococcus pneumoniae SPN19-14 assessed as inhibition of visible bacterial growth incubated for 18 hrs by broth microdilution method; format: functional
[12] = system: Streptococcus agalactiae; experiment: Antibacterial activity against erythromycin-resistant Streptococcus agalactiae 19-8 assessed as inhibition of visible bacterial growth incubated for 18 hrs by broth microdilution method; format: functional
[13] = system: Moraxella catarrhalis; experiment: Antibacterial activity against Moraxella catarrhalis BCA 19-5 assessed as inhibition of bacterial growth incubated for 24 hrs by CLSI based broth microdilution method; format: functional; settings: Moraxella catarrhalis, BCA 19-5, 24 h, read-out: MIC
[14] = system: Streptococcus pneumoniae; experiment: Antibacterial activity against erythromycin-resistant Streptococcus pneumoniae SPN19-8 assessed as inhibition of visible bacterial growth incubated for 18 hrs by broth microdilution method; format: functional
[15] = system: Staphylococcus epidermidis; experiment: Antibacterial activity against erythromycin-resistant Staphylococcus epidermidis 19-4 assessed as inhibition of visible bacterial growth incubated for 18 hrs by broth microdilution method; format: functional
[16] = Cytotoxicity against mouse AML12 cells assessed as reduction in cell viability incubated for 48 hrs by MTT assay; format: toxicity, cell-based
[17] = system: Moraxella catarrhalis; experiment: Antibacterial activity against Moraxella catarrhalis BCA 19-31 assessed as inhibition of bacterial growth incubated for 24 hrs by CLSI based broth microdilution method; format: functional; settings: BCA 19-31, 24 h
[18] = system: Streptococcus pyogenes; experiment: Antibacterial activity against erythromycin-resistant Streptococcus pyogenes ATCC 19615 assessed as inhibition of visible bacterial growth incubated for 18 hrs by broth microdilution method; format: functional
[19] = system: Staphylococcus epidermidis; experiment: Antibacterial activity against erythromycin-resistant Staphylococcus epidermidis 19-11 assessed as inhibition of visible bacterial growth incubated for 18 hrs by broth microdilution method; format: functional

| Structure (SMILES) | MIC [1] [µg/mL] | MIC [2] [µg/mL] | MIC [3] [µg/mL] | MIC [4] [µg/mL] | MIC [5] [µg/mL] | MIC [6] [µg/mL] | MIC [7] [µg/mL] | MIC [8] [µg/mL] | MIC [9] [µg/mL] | MIC [10] [µg/mL] | MIC [11] [µg/mL] | MIC [12] [µg/mL] | MIC [13] [µg/mL] | MIC [14] [µg/mL] | MIC [15] [µg/mL] | CC50 at 48 h [16] [µM] | MIC [17] [µg/mL] | MIC [18] [µg/mL] | MIC [19] [µg/mL] |
| --- | --- | --- | --- | --- | --- | --- | --- | --- | --- | --- | --- | --- | --- | --- | --- | --- | --- | --- | --- |
| CC[C@H]1OC(=O)[C@H](C)[C@@H](O[C@H]2C[C@@](C)(OC)[C@@H](O)[C@H](C)O2)[C@H](C)[C@@H](O[C@@H]2O[C@H](C)C[C@H](N(C)C)[C@H]2O)[C@](C)(O)C[C@@H](C)C(=O)[C@H](C)[C@@H](O)[C@]1(C)O [ERYTHROMYCIN] | > 16 | > 64 | 8 (≈ 10.9 µM) | 8 (≈ 10.9 µM) | 16 (≈ 21.8 µM) | 64 (≈ 87.2 µM) | 32 (≈ 43.6 µM) | > 64 | > 64 | 0.25 (≈ 0.341 µM) | 0.5 (≈ 0.681 µM) | 0.125 (≈ 0.17 µM) | > 64 | > 64 | > 64 | > 100 | 0.5 (≈ 0.681 µM) | < 0.03 | 64 (≈ 87.2 µM) |
| CCOc1ccc(NC(=O)OCCCN2C(=O)O[C@]3(C)[C@@H](CC)OC(=O)[C@@](C)(F)C(=O)[C@H](C)[C@@H](O[C@@H]4O[C@H](C)C[C@H](N(C)C)[C@H]4O)[C@](C)(OC)C[C@@H](C)C(=O)[C@H](C)[C@@H]23)cc1 | > 16 | 0.5 (≈ 0.587 µM) | 16 (≈ 18.8 µM) | > 16 | 2 (≈ 2.35 µM) | 1 (≈ 1.17 µM) | 0.25 (≈ 0.293 µM) | 0.25 (≈ 0.293 µM) | 0.5 (≈ 0.587 µM) | 0.06 (≈ 0.0704 µM) | 0.5 (≈ 0.587 µM) | – | 0.5 (≈ 0.587 µM) | 0.25 (≈ 0.293 µM) | 0.5 (≈ 0.587 µM) | 36.5 | 0.5 (≈ 0.587 µM) | < 0.03 | 0.125 (≈ 0.147 µM) |
| CC[C@H]1OC(=O)[C@@](C)(F)C(=O)[C@H](C)[C@@H](O[C@@H]2O[C@H](C)C[C@H](N(C)C)[C@H]2O)[C@](C)(OC)C[C@@H](C)C(=O)[C@H](C)[C@H]2N(CCCOC(=O)Nc3c(F)cccc3F)C(=O)O[C@]12C | 16 (≈ 19 µM) | 0.125 (≈ 0.148 µM) | 4 (≈ 4.74 µM) | 4 (≈ 4.74 µM) | 1 (≈ 1.18 µM) | 0.125 (≈ 0.148 µM) | 0.125 (≈ 0.148 µM) | 0.125 (≈ 0.148 µM) | 0.25 (≈ 0.296 µM) | < 0.03 | 0.125 (≈ 0.148 µM) | – | 0.122 (≈ 0.145 µM) | 0.125 (≈ 0.148 µM) | 0.03 (≈ 0.0355 µM) | > 100 | 0.125 (≈ 0.148 µM) | < 0.03 | < 0.03 |
| CC[C@H]1OC(=O)[C@H](C)[C@@H](O[C@H]2C[C@@](C)(OC)[C@@H](O)[C@H](C)O2)[C@H](C)[C@@H](O[C@@H]2O[C@H](C)C[C@H](N(C)C)[C@H]2O)[C@](C)(O)C[C@@H](C)CN(C)[C@H](C)[C@@H](O)[C@]1(C)O [AZITHROMYCIN] | > 16 | > 64 | 4 (≈ 5.34 µM) | 4 (≈ 5.34 µM) | 0.125 (≈ 0.167 µM) | > 64 | 0.5 (≈ 0.668 µM) | 0.25 (≈ 0.334 µM) | > 64 | 0.5 (≈ 0.668 µM) | 4 (≈ 5.34 µM) | 0.5 (≈ 0.668 µM) | > 64 | 0.25 (≈ 0.334 µM) | > 64 | > 100 | 0.125 (≈ 0.167 µM) | 0.25 (≈ 0.334 µM) | 0.25 (≈ 0.334 µM) |
| CC[C@H]1OC(=O)[C@H](C)[C@@H](O[C@H]2C[C@@](C)(OC)[C@@H](O)[C@H](C)O2)[C@H](C)[C@@H](O[C@@H]2O[C@H](C)C[C@H](N(C)C)[C@H]2O)[C@](C)(OC)C[C@@H](C)C(=O)[C@H](C)[C@@H](O)[C@]1(C)O [CLARITHROMYCIN] | > 16 | 64 (≈ 85.6 µM) | 8 (≈ 10.7 µM) | 4 (≈ 5.35 µM) | 64 (≈ 85.6 µM) | 32 (≈ 42.8 µM) | 64 (≈ 85.6 µM) | > 64 | 16 (≈ 21.4 µM) | 0.25 (≈ 0.334 µM) | 0.5 (≈ 0.668 µM) | 0.06 (≈ 0.0802 µM) | > 64 | > 64 | > 64 | > 100 | 0.125 (≈ 0.167 µM) | < 0.03 | 16 (≈ 21.4 µM) |
